The values below come from patent US20220281931A1, “CHEMICALLY INDUCIBLE POLYPEPTIDE POLYMERIZATION” (Dana-Farber Cancer Institute, Inc., priority 2019, published 2022).

Experiment [1] concerns the target T1, Nano-LuciferaseSIAH1^C44S and HaloTagBCL6 (Homo sapiens, UniProt P41182).
T1 construct: expressed in transfected cells; host or cells: HEK293T cells, transient transfection
Kind of experiment: NanoBRET BCL6-SIAH1 interaction in HEK293T cells. The settings on record: 1 μM, 2 hours. It is filed as cell-based. How it is done:
Bioluminescence resonance energy transfer (BRET) experiments were performed using a NanoBRET PPI starter kit (Promega N1821) according to the manufacturer's instructions and as previously described (Sperling, A. S. et al. Patterns of substrate affinity, competition, and degradation kinetics underlie biological activity of thalidomide analogs. Blood 134, 160-170, doi:10.1182/blood.2019000789 (2019)).

Experiment [2] concerns the target T2, BCL6^5-360 - SIAH1^SBD (Homo sapiens, UniProt P41182).
T2 construct: 200 nM BodipyFL-labeled BCL6^5-360 variants; His6 (N); Spy (C); made in house; host or cells: Trichoplusia ni High Five insect cells, baculovirus
Kind of experiment: BCL6-SIAH1 TR-FRET. It is filed as biochemical. The settings on record: preassembled 0.2 μM BodipyBCL6^5-360 and 0.2 μM BiotinSIAH1^SBD, in vitro; read-out: EC50 for increase of the BCL6-SIAH1 interaction. On the procedure:
After dispensing the assay mixture (15 μL volume), increasing concentrations of compounds were dispensed in a 384-well microplate (Corning, 4514) using a D300e Digital Dispenser (HP) normalized to 1% DMSO. After excitation of terbium fluorescence at 337 nm, emission at 490 nm (terbium) and 520 nm (BodipyFL) were recorded with a 70 us delay over 600 μs to reduce background fluorescence, and the reaction was followed over 60 cycles of each data point using a PHERAstar FS microplate reader (BMG Labtech). The TR-FRET signal of each data point was extracted by calculating the 520/490 nm ratio. The half-maximal effective concentration (EC50) values were estimated using dose-response analysis standard four parameter log-logistic curves, fitted to the experimental data using […] package. […] After dispensing the assay mixture, increasing concentration of BodipyFL-BCL6^5-360 was added to the SIAH1 mixture in a […] (7.5 μL each, total 15 μL assay volume). The 520/490 nm ratios were measured in as described above and plotted to calculate the KD^APP values using dose-response analysis standard four parameter log-logistic curves using […] package.

For experiment [3], the target named is T3, BCL6^5-129 (Homo sapiens, UniProt P41182).
T3 construct: mixing 100 nM biotinylated BCL6^5-129, 100 nM N-terminal FITC-labeled BCoR peptide; made in house; host or cells: Trichoplusia ni High Five insect cells, baculovirus
Kind of experiment: BCL6-BCoR TR-FRET (compound binding assay). The settings on record: 0.1 μM FITCBCoR polypeptide, 0.1 μM BiotinBCL6^5-129. On the procedure:
Competitive titration of BI-3802 or BI-3812 were carried out by mixing 100 nM biotinylated BCL6^5-129, 100 nM N-terminal FITC-labeled BCoR peptide (sequence: […]), and 2 nM terbium-coupled streptavidin in the same assay buffer. After dispensing the assay mixture (15 μL volume), increasing concentrations of compounds were dispensed in a 384-well microplate (Corning, 4514) using a D300e Digital Dispenser (HP) normalized to 1% DMSO. The 520/490 nm ratios were measured as described above and plotted to calculate the KD^APP values using dose-response analysis standard four parameter log-logistic curves using the dr4pl R package.

For experiment [4], the target named is T4, BCL6 (Homo sapiens, UniProt P41182).
T4 construct: endogenous in cells; host or cells: SuDHL4 / SuDHL4Cas9 cells
Kind of experiment: Cellular fractionation and immunoblot of BCL6. It is filed as cell-based. The settings on record: SuDHL4 cells, 1 μM, 24 hours. On the procedure: 1×10^6 SuDHL4Cas9 cells were treated with DMSO or 1 μM BI-3802 for 24 h and fractionated using the CelLytic™NuCLEAR™Extraction Kit (Sigma-Aldrich) according to the manufacturer's protocol, resolved on a polyacrylamide gel, and immunoblotted for the indicated targets.
(In western blotting, separated proteins are transferred to a membrane and probed.)

The target in experiment [5] is T5, BCL6-eGFP fusion construct (Homo sapiens, UniProt P41182).
T5 construct: expressed in transfected cells; host or cells: HEK293TCas9 cells, lentiviral transduction (Cilantro2 vector)
The experiment can be described thus: Live cell imaging of BCL6-eGFP foci in HEK293T cells. The settings on record: HEK293T cells, full length BCL6 and eGFPBCL6^1-275, 1 μM. Type of experiment: cell-based. How it is done: 1×10^3 HEK293T cells per cm^2 were seeded in a μ-Slide 8 Well chamber (ibidi) and cultured for 18-24 h under standard growth conditions. Cell culture medium was exchanged to CO2 independent media (Gibco) and imaged with the DeltaVision Ultra High-Resolution Microscope (GE Healthcare, 100×lens, oil refraction index=1.520). The following acquisition parameters were used: Image size […], binning 1×1, GFP exposure time 0.08 sec. and the Neutral Density (% T) filter 32%. To capture foci within all cell volume, around 26μm per cell was imaged every 0.4-0.5 μm. Images were deconvolved (10 cycles, conservative conditions) and projected using maximal intensity by softWoRx® 7.0.0. Images for movies were taken every 10 minutes and combined to a movie by QuickTime.

The target in experiment [6] is T6, endogenous BCL6 (Homo sapiens, UniProt P41182).
T6 construct: endogenous in cells; host or cells: SuDHL4 / SuDHL4Cas9 cells
The experiment can be described thus: Immunofluorescence of endogenous BCL6 in SuDHL4 cells. The settings on record: 1 μM BI-3802, 1 hour. Type of experiment: cell-based. How it is done: In vitro ubiquitination for identification of compatible E2 conjugating enzymes was performed by following the manufacturer's instructions (K-982, Boston Biochem), using Strep II-Avi-BCL6^5-360 and Flag-SIAH1^FL. Time-course in vitro ubiquitination was performed by mixing the substrate (BCL6, 2 μM), E3 (SIAH, 0.5 μM), E1 (UBA1, Boston Biochem, 0.2 μM, E2 (UBE2D1, Boston Biochem, 0.5 μM), and ubiquitin (Boston Biochem, 50 μM), with a reaction buffer (B-71, Boston Biochem) containing BI-3802 or DMSO (normalized to 1% DMSO) in 15 μL volume each. Reactions were initiated by adding 5 μL of Mg-ATP solution (B-20, Boston Biochem), incubated for up to 60 min at 37° C., and analyzed by western blot using Strep tag II Antibody HRP conjugate (71591-3, Sigma) at 1:4,000. 0.8×10^6 cells/mL SuDHL4 cells were treated with DMSO or 0.5 μM E1 Inhibitor (3 h)+1 μM BI-3802 (I h) and 200 μL of the cell suspension was immobilized on a slide using the Cytospin™ 4 Cytocentrifuge (CytoSpin 4, A78300003; 6000 rpm, 6 min). Medium was aspirated and cells were fixed with 4% formaldehyde diluted in warm PBS for 15 min at room temperature. Slides were washed three times for 5 min with PBS, blocked and permeabilized with blocking solution (5% Normal Goat Serum (Cell Signaling), 0.3% Triton X-100 in PBS) for 60 min and stained with anti-BCL6 antibody in blocking solution overnight at 4° C. […]

In experiment [7] the test system is lymphoma cells. The settings on record: cited from earlier work.

As usually defined, the EC50 is the midpoint of the concentration-response curve.

Turning to `CNC(=O)COc1cc2cc(Nc3nc(N4C[C@H](C)C[C@H](C)C4)ncc3Cl)ccc2n(C)c1=O` [BI-3802, 2-((6-((5-chloro-2-((3S,5R)-3,5-dimethylpiperidin-1-yl)pyrimidin-4-yl)amino)-1-methyl-2-oxo-1,2-dihydroquinolin-3-yl)oxy)-N-methylacetamide], the “effect on the BCL6-SIAH1 interaction in cells (mBRET signal)” value in experiment [1] is “increased the interaction between BCL6 and SIAH1”. Besides, the EC50 in experiment [2] came out at 64 nM. Moreover, in experiment [3], the “affinity of compound to BCL6 (BCoR peptide competition)” value is given as “comparable affinity”. In addition, the “chromatin-bound BCL6 level” value in experiment [4] was “efficiently depleted chromatin-bound BCL6”. The “eGFP-containing BCL6 foci formation” value in experiment [5] was “appearance of distinct eGFP-containing foci was observed within minutes”. In addition, in experiment [6], the “endogenous BCL6 foci formation” value is “endogenous BCL6 also formed foci”. Further, the “activity against lymphoma cells compared to BI-3812” value in experiment [7] is reported as “markedly increased activity against lymphoma cells”.
